Assay results as given in paper PMC8510591, “A comprehensive study of the basic formulation of supersaturated self-nanoemulsifying drug delivery systems (SNEDDS) of albendazolum” (Drug Delivery, 2021).
≈ marks a conversion by molar mass, not a printed value.

Assays:
[1] = ABZ solubility in oils, surfactants and co-surfactants; assay type: physicochemical; conditions: 37 °C, 72 h
Method: The solubility tests were carried out on various oils, surfactants, and co-surfactants. The solubility determination method previously used by Meena et al. ([2012]) was employed. Excess ABZ was added to a volume of 1 g of the tested oil, surfactants, and co-surfactants, and placed in well-stoppered vials. The vials were agitated for 72 h (specified after determination of the equilibrium time beyond which the solubility is stable) at 37 ± 0.05 °C in a constant temperature water bath until equilibrium was attained. Subsequently, the vial's contents were centrifuged at 4000 rpm for 15 min using an ultracentrifuge to separate the insoluble ABZ. After being diluted with the solvent mixture (methanol and 1 N HCl with 7:3), the supernatants were filtered through a cellulose filter ([…]), and the ultraviolet absorbance of the filtrates was measured using the tested oil diluted with the solvent mixture as a blank to be 248 nm using a UV spectrophotometer. The materials used in the study included sunflower oil, Captex 300, PEG 300. PEG 400, soya oil, olive oil, crodamol oil, corn oil, Lauroglycol FCC, Cremophor EL, Solutol HS15, Labrafac lipophile WL1349, Capmul PG8, SPAN 20, Captex 355, Tween 80, Acrysol […], Labrasol, Cremophor RH40, Acrysol K140, Maisine, Sesame oil, Capmul MCM, Capryol PGMC, and propylene glycol. Results from each experiment were expressed as values in μg/mL.

[2] = ABZ saturated solubility in the selected SNEDDS pre-concentrate and in water; assay type: physicochemical
Method: Excess ABZ was added to keep the glass vials containing 1 g of selected optimized SNEDDS preconcentrate (composed of 5% oleic acid, 65% tween 20, 30% PEG) airtight. The suspension was incubated at 30 ± 0.5 °C in a water bath for 72 h to attain equilibrium (Kang et al., [2012]). The suspension was then centrifuged for 15 min at 4000 rpm, after three days using an ultracentrifuge to eliminate the undissolved ABZ. This was then followed by filtration of the supernatant with a 0.22 µm membrane filter. After the desired dilution with solvent (methanol and 1 N HCl with 7:3) was achieved, the ultraviolet absorbance of the filtrate was measured using a UV spectrophotometer at 248 nm. Blanks of plain SNEDDS not containing any drugs diluted in the same ratio were used to cancel interference from the SNEDDS preconcentrate. The experiment was repeated thrice, and the average drug saturated solubility in mg/mL of the selected SNEDDS was calculated.

SMILES: CCCSc1ccc2nc(NC(=O)OC)[nH]c2c1 [ABZ, Albendazolum]
- Total solubility ([1]; in Acrysol K140): 46.60 µg g^–1
- Total solubility ([1]; in Acrysol K150): 46.18 µg g^–1
- Total solubility ([1]; in Capmul MCM): 5.59 µg g^–1
- Total solubility ([1]; in Capmul PG8): 139.88 µg g^–1
- Total solubility ([1]; in Capryol PGMC): 179.48 µg g^–1
- Total solubility ([1]; in Captex 300): 40.23 µg g^–1
- Total solubility ([1]; in Captex 355): 99.37 µg g^–1
- Total solubility ([1]; in Cremophor EL): 179.76 µg g^–1
- Total solubility ([1]; in Cremophor RH40): 46.72 µg g^–1
- Total solubility ([1]; in Crodamol oil): 23.61 µg g^–1
- Total solubility ([1]; in Labrafac lipophile WL1349): 96.78 µg g^–1
- Total solubility ([1]; in Labrasol): 188.13 µg g^–1
- Total solubility ([1]; in Lauroglycol FCC): 186.05 µg g^–1
- Total solubility ([1]; in Maisine): 18.43 µg g^–1
- Total solubility ([1]; in Oleic acid): 734.20 µg g^–1
- Total solubility ([1]; in Olive oil): 0.79 µg g^–1
- Total solubility ([1]; in PEG 300): 340.45 µg g^–1
- Total solubility ([1]; in PEG 600): 498.90 µg g^–1
- Total solubility ([1]; in Propylene glycol): 194.47 µg g^–1
- Total solubility ([1]; in SPAN 20): 185.79 µg g^–1
- Total solubility ([1]; in Sesame oil): 3.73 µg g^–1
- Total solubility ([1]; in Solutol HS15): 193.44 µg g^–1
- Total solubility ([1]; in Soya oil): 3.62 µg g^–1
- Total solubility ([1]; in Sunflower oil): 0.43 µg g^–1
- Total solubility ([1]; in Tween 20): 210.45 µg g^–1
- Total solubility ([1]; in Tween 80): 172.19 µg g^–1
- average increase of solubility, SNEDDS pre-concentrate vs water ([2]; SNEDDS pre-concentrate relative to water): 89 fold
- solubility at 72 h ([2]; SNEDDS preconcentrate 5% oleic acid, 65% tween 20, 30% PEG, 30 °C, 72 h): 125 µg/mL (≈ 471 µM)
- solubility ([2]; water): 1.4 µg/mL (≈ 5.28 µM)
